In patent publication US20110263485A1, “Bifunctional Griffithsin Analogs” (priority 2009, published 2011):
Values joined by “and” are separate entries in the source; they are usually repeats but may differ in a detail not shown here. Identical values can stand only once. Like-named read-outs stand apart in the source and are kept apart here.

Columns and labels:
[1] = test system: ADA (R5) pseudovirus in TZM-bl cells; conditions: for IC50: read-out: ADA (R5) single round pseudovirus IC50
[2] = test system: HeLa-ADA effector cells (HIV-1 ADA (R5) env) and HeLa-P5L target cells (CD4, CCR5); test: R5 cell-cell fusion assay; conditions: for IC50: read-out: R5 fusion assay IC50
X4 fusion = conditions: Martin et al. (2003); cited from earlier work
CCR5-tropic fusion = conditions: published reports, vaccinia technology; cited from earlier work
[3] = test system: HL2/3 effector cells (HXB2 env (X4)) and HeLa-TZM target cells; test: X4 cell-cell fusion assay; format: cell-based, HIV-1
Excerpt: In the X4 fusion assay, HeLa-TZM cells were used as target cells and HL2/3 cells were used as effector cells.

[4] = test system: HeLa-ADA effector cells and HeLa-P5L target cells seeded with 3T3 cells; test: competition R5 fusion assay with mouse 3T3 competitor cells; format: cell-based, HIV-1; conditions: for inhibition in R5 fusion assay with competitor cells, in words: mouse 3T3 competitor cells
Protocol: In the competition R5 fusion assay, 5×10^3 HeLa-P5L cells were seeded together with 5×10^3 3T3 cells per well. The rest of the procedure was identical to the normal R5 fusion assay.
For a potential therapeutic to be beneficial in an organism, it needs to be able to effectively find its target in the milieu of other cell types and potential binding partners. As a test of this ability, the R5 cell fusion assay was modified with the addition of unrelated mouse 3T3 cells.

Ba-L (R5) in MAGI cells = test: replication competent HIV assay, Ba-L in MAGI cells; format: cell-based
ADA (R5) in MAGI cells = test: replication competent HIV assay, ADA in MAGI cells; format: cell-based
IIIB (X4) in MAGI cells = test: replication competent HIV assay, IIIB in MAGI cells; format: cell-based
Ba-L (R5) in PBMC = test: HIV-1 replication in PBMC, Ba-L; format: cell-based
91US005 (R5) in PBMC = test: HIV-1 replication in PBMC, 91US005; format: cell-based
[5] = test system: NL4-3 (CXCR4-tropic) in PBMCs; test: HIV-1 replication in PBMC, NL4-3; format: cell-based; conditions: combinations as total protein concentration
[6] = test system: 92HT599 (CXCR4-tropic) in PBMCs; test: HIV-1 replication in PBMC, 92HT599; format: cell-based; conditions: combinations as total protein concentration
HIV [7] = conditions: cited from earlier work
multiple clades of HIV = conditions: cited from earlier work
human cervical explants = conditions: cited from earlier work
rabbit vaginal model = conditions: in vivo; cited from earlier work
[8] = test system: HeLa P5L cells pre-incubated with inhibitor, washed, then HeLa ADA cells; test: R5 fusion assay with wash-out on P5L cells
[9] = test system: HeLa ADA cells pre-incubated with inhibitor, washed, then HeLa P5L cells; test: R5 fusion assay with wash-out on ADA cells
[10] = test system: JRFL (R5) pseudovirus in TZM-bl cells; test: single round infection assay, JRFL pseudovirus
HIV [11] = conditions: read-out: IC50 (50% inhibition) in in vitro assays; Root & Steger (2004); cited from earlier work
[12] = cited from earlier work

In the case of “Ac-HTTWMEWDREINNYTSLIHSLIEESQNLQEKNEQELL-NH2 [C37(Q652L)]”, the IC50 [1] is reported as 114 ± 4.94 nM and the IC50 [2] is reported as 28.2 ± 8.34 nM.

In the case of “CD4M33: 27 amino acid peptide designed by Martin et al. as a mimic of human CD4 binding HIV gp120 (CNLHFCQLRCKSLGLLGKCAGSFCACV)”, the IC50 (X4 fusion) is listed as 800 ± 90 nM and the “amount required to inhibit CCR5-tropic fusion” value (CCR5-tropic fusion) is listed as “micromolar amounts of the peptide are required”.

With “Griff37 I642D: Griff37 with substitution of Asp for Ile at position 642 in C37” the “inhibition in R5 fusion assay, in words” value [2] was “shows decreased activity”.

In the case of “GriffC37(Q652L): Griff37 with point mutation Q652L in the C37 part”, the “inhibition in X4 fusion assay, in words” value [3] is reported as “similar” and the “inhibition in R5 fusion assay, in words” value [2] is reported as “approximately the same effectiveness as Griff37”.

For Griffithsin, the IC50 [3] was 0.48 nM and 0.468 nM, the IC50 ([4]; 3T3 competitor cells) was 1.73 ± 0.603 nM and the “inhibition in R5 fusion assay with competitor cells, in words” value [4] was “still performs well”. The IC50 (Ba-L (R5) in MAGI cells) was 0.04 nM, the IC90 (Ba-L (R5) in MAGI cells) was 0.515 ± 0.055 nM and the IC50 (ADA (R5) in MAGI cells) was 0.03 ± 0.01 nM. It also gave an IC90 (ADA (R5) in MAGI cells) of 0.45 ± 0.04 nM, an IC50 (IIIB (X4) in MAGI cells) of 0.145 ± 0.065 nM and an IC90 (IIIB (X4) in MAGI cells) of 0.89 ± 0.11 nM. It also gave an IC50 (Ba-L (R5) in PBMC; PBMCs, Table 8, combinations as total protein concentration, read-out: Ba-L (CCR5-tropic) IC50) of 0.28 ± 0.17 nM, an IC90 (Ba-L (R5) in PBMC; PBMCs, Table 8, combinations as total protein concentration, read-out: Ba-L (CCR5-tropic) IC90) of 0.76 ± 0.15 nM and an IC50 (Ba-L (R5) in PBMC; Table 7, read-out: Ba-L (R5) in PBMC IC50) of 0.28 ± 0.17 nM. It also gave an IC90 (Ba-L (R5) in PBMC; Table 7, read-out: Ba-L (R5) in PBMC IC90) of 0.76 ± 0.15 nM, an IC50 (91US005 (R5) in PBMC; PBMCs, Table 8, combinations as total protein concentration, read-out: 91US005 (CCR5-tropic) IC50) of 0.28 ± 0.17 nM and an IC90 (91US005 (R5) in PBMC; PBMCs, Table 8, combinations as total protein concentration, read-out: 91US005 (CCR5-tropic) IC90) of 0.76 ± 0.15 nM. The IC50 (91US005 (R5) in PBMC; Table 7, read-out: 91US005 (R5) in PBMC IC50) was 0.16 ± 0.03 nM, the IC90 (91US005 (R5) in PBMC; Table 7, read-out: 91US005 (R5) in PBMC IC90) was 0.51 ± 0.08 nM and the IC50 [5] was 0.17 ± 0.04 nM. It also gave an IC90 [5] of 0.725 ± 0.13 nM, an IC50 [6] of 0.74 ± 0.37 nM and an IC90 [6] of 1.86 ± 0.89 nM. The IC50 [1] was 0.008 ± 0.016 nM, the IC90 ([1]; read-out: ADA (R5) single round pseudovirus IC90) was 0.164 ± 0.069 nM and the “activity in cervical/vaginal lavage fluid” value (HIV [7]) was “retains its activity”. For the same substance, the “activity against clades of HIV” value (multiple clades of HIV) was “active against multiple clades of HIV”, the “inflammation in human cervical explants” value (human cervical explants) was “non-inflammatory” and the “irritation in a rabbit vaginal model” value (rabbit vaginal model) was “non irritating”. The IC50 [2] was 1.31 nM and 1.3 nM, the “inhibition after wash-out on target (P5L) cells, in words” value [8] was “still performed well” and the IC50 ([8]; read-out: R5 fusion with wash-out on P5L cells IC50) was 7.34 ± 3.58 nM. The “inhibition after wash-out on ADA cells, in words” value [9] was “maintained nanomolar effectiveness”, the IC50 ([9]; read-out: R5 fusion with wash-out on ADA cells IC50) was 4.28 ± 1.5 nM and the IC50 ([10]; read-out: JRFL (R5) single round pseudovirus IC50) was 0.035 ± 0.008 nM. It also gave an IC90 ([10]; read-out: JRFL (R5) single round pseudovirus IC90) of 1.25 ± 0.19 nM.

With “P2-RANTES-linker-Griffithsin: P2-RANTES linked to Griffithsin; SEQ ID NO. 4” the “inhibition in R5 fusion assay with competitor cells, in words” value [4] was “appeared to perform better than either protein alone” and the “inhibition in R5 fusion assay, in words” value [2] was “more effective than Griffithsin alone”.

For enfuvirtide, the IC50 (HIV [11]) is given as 2 to 20 nM and the lifetime in vivo [12] is given as “short lifetime of only hours in vivo”.
